Target: T1, TYK2 (h) (Homo sapiens, UniProt P29597)
T1 construct: purchased Millipore UK Ltd (contract assay service)
Assay: TYK2 (h) kinase assay
Assay type: biochemical
Experimental: Kinase assays can be performed by measurement of incorporation of γ-33P ATP into immobilized myelin basic protein (MBP). High binding white 384 well plates (Greiner) are coated with MBP (Sigma #M-1891) by incubation of 60 μL/well of 20 μg/mL MBP in Tris-buffered saline (TBS; 50 mM Tris pH 8.0, 138 mM NaCl, 2.7 mM KCl) for 24 h at 4° C. Plates are washed 3× with 100 μL TBS. Kinase reactions are carried out in a total volume of 34 μL in kinase buffer (according to the need to make, for example, 5 mM Hepes pH 7.6, 15 mM NaCl, 0.01% bovine gamma globulin (Sigma #I-5506), 10 mM MgCl2, 1 mM DTT, 0.02% TritonX-100). Compound dilutions are performed in DMSO and added to assay wells to a final DMSO concentration of 1%. Each data point is measured in duplicate, and at least two duplicate assays are performed for each individual compound determination. […] A mixture of unlabeled ATP and γ-33P ATP is added to start the reaction (2×10^6 cpm of γ-33P ATP per well (3000 Ci/mmole) and 10 μM unlabeled ATP, typically. The reactions are carried out for 1 h at room temperature with shaking Plates are washed 7× with TBS, followed by the addition of 50 μL/well scintillation fluid (Wallac). Plates are read using a Wallac Trilux counter. This is only one format of such assays; various other formats are possible, as known to one skilled in the art. […]

T1 sequence (P29597 whole entry): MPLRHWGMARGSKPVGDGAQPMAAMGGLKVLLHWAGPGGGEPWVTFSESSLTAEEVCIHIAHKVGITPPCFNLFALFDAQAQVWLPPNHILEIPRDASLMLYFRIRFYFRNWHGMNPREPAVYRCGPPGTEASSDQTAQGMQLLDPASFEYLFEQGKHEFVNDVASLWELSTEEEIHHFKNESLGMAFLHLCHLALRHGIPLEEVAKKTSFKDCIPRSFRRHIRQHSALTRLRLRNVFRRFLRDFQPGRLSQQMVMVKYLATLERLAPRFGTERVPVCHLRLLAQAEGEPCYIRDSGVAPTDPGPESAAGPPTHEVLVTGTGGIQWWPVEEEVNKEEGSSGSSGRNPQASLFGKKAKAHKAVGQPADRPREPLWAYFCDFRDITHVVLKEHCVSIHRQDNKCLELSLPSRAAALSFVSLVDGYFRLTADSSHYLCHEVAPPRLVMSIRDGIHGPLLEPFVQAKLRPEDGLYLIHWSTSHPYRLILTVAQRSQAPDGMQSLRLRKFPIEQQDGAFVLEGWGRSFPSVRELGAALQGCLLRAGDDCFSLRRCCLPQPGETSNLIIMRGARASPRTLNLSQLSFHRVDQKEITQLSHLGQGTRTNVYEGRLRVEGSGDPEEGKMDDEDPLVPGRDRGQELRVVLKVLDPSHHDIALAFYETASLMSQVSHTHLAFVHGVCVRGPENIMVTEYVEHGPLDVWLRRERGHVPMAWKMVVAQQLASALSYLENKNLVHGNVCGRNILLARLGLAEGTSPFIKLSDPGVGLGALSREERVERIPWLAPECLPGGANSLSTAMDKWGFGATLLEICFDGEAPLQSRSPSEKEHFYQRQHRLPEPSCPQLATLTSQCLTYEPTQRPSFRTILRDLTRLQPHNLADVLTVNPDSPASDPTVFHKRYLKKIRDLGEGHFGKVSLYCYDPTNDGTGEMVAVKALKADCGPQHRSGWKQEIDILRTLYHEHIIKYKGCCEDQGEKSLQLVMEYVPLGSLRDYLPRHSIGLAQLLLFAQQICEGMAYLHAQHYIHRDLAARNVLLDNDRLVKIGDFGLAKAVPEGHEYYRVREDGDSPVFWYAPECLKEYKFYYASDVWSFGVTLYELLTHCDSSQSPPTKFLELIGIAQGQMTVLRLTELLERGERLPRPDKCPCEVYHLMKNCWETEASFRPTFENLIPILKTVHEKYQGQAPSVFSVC

IC50 [nM]	SMILES
2	Cc1c2ccc(Nc3ncc(Cl)c(NC4CCN(c5ccc(C#N)cn5)CC4)n3)cc2nn1C [Ex. 4]
22	CN(c1nc(Nc2cnn(C)c2)ncc1Cl)C1CCN(c2ccc(C#N)cn2)CC1 [Ex. 5, 6-(4-((5-chloro-2-((1-methyl-1H-pyrazol-4-yl)amino)pyrimidin-4-yl) (methyl)amino)piperidin-1-yl)nicotinonitrile]

From patent US10059689B2, “Substituted heteroaryl compounds and methods of use” (Sunshine Lake Pharma Co., Ltd., priority 2014, dated 2018)
